3 compounds from ChEMBL document CHEMBL1275594, “Cellular pharmacokinetics of the novel biaryloxazolidinone radezolid in phagocytic cells: studies with macrophages and polymorphonuclear neutrophils” (Antimicrob Agents Chemother, 2010) can be followed below.

The test system of data set [1] is THP-1. As to the kind of experiment: Drug level in human THP1 cells at 50 mg/L after 30 mins at pH 6. Format: ADME, cell-based. As to conditions: thp-1, pH 6, 0.5 h.
Data set [2] relates to THP-1. As to the kind of experiment: Drug level in human THP1 cells at 250 mg/L after 2 hrs in presence of 50 uM proton inophore monesin relative to control. Format: ADME, cell-based. As to conditions: thp-1, 2 h.
The subject of data set [3] is THP-1. Description: Drug level in human THP1 cells at 50 mg/L at pH 6.5. Format: ADME, cell-based. The note with it: thp-1, pH 6.5.
In data set [4] the test system is THP-1. As to the kind of experiment: Drug level in human THP1 cells at 50 mg/L at pH < 7 in presence of 50 uM proton inophore monesin. Format: ADME, cell-based.
Data set [5] concerns THP-1. Description: Drug level in human THP1 cells at 50 mg/L after 2 hrs in presence of 50 uM proton inophore monesin relative to control. Format: ADME, cell-based. As to conditions: thp-1, 2 h.
For data set [6], the system named is J774. As to the kind of experiment: Drug level in mouse J774 cells at 50 mg/L at pH 6.5. Format: ADME, cell-based. As to conditions: j774, pH 6.5.
Data set [7] relates to THP-1. As to the kind of experiment: Drug level in human THP1 cells at 50 mg/L after 2 hrs in presence 60 mM deoxyglucose and 5 mM NaN3 relative to control. Format: ADME, cell-based. As to conditions: thp-1, 2 h.
Data set [8] in a line: Half life in mouse J774 cells at 4 mg/L. It counts as ADME, cell-based.
Data set [9] deals with THP-1. As to the kind of experiment: Ratio of drug level for cellular to extracellular region of human THP-1 cells at 10 to 50 ug/ml. Format: ADME, cell-based.
The subject of data set [10] is THP-1. As to the kind of experiment: Drug level in human THP1 cells at 50 mg/L after 2 hrs in presence 10 uM efflux pump inhibitor verapamil relative to control. Format: ADME, cell-based. As to conditions: thp-1, 2 h.
The subject of data set [11] is THP-1. As to the kind of experiment: Drug level in human THP1 cells at 10 mg/L after 2 hrs in presence of 50 uM proton inophore monesin relative to control. It counts as ADME, cell-based. As to conditions: thp-1, 2 h.
Data set [12] concerns THP-1. As to the kind of experiment: Drug level in human THP1 cells at 50 mg/L after 2 hrs in presence 250 uM efflux pump inhibitor gemfibrozil relative to control. As to conditions: thp-1, 2 h. Format: ADME, cell-based.
For data set [13], the system named is J774. Description: Drug level in mouse J774 cells at 50 mg/L in presence of 50 uM proton inophore monesin relative to control. It counts as ADME, cell-based.
Data set [14] in a line: Half life in human PMNC at 4 mg/L. Format: ADME.
In data set [15] the test system is J774. As to the kind of experiment: Drug level in mouse J774 cells at 50 mg/L after 2 hrs in presence of < 10% fetal calf serum relative to control. Format: ADME, cell-based. As to conditions: j774, 2 h.
Data set [16] in a line: Half life in human THP1 cells at 4 mg/L. Format: ADME, cell-based. As to conditions: THP-1 cells.
Data set [17] deals with THP-1. As to the kind of experiment: Drug level in human THP1 cells at 50 mg/L after 2 hrs in presence of < 10% fetal calf serum relative to control. It counts as ADME, cell-based. The note with it: thp-1, 2 h.
Data set [18] in a line: Ratio of drug level for cellular to extracellular region of human PMNC cells at 10 to 50 ug/ml. It counts as ADME, cell-based.
The subject of data set [19] is THP-1. Description: Drug level in human THP1 cells at 250 mg/L after 30 mins at pH 6. It counts as ADME, cell-based. As to conditions: thp-1, pH 6, 0.5 h.
The test system of data set [20] is THP-1. Description: Drug level in human THP1 cells at 10 mg/L after 2 hrs in presence 250 uM efflux pump inhibitor gemfibrozil relative to control. It counts as ADME, cell-based. The note with it: thp-1, 2 h.
Data set [21] concerns THP-1. As to the kind of experiment: Drug level in human THP1 cells at 10 mg/L at pH =< 6.5. Format: ADME, cell-based.
Data set [22] relates to THP-1. Description: Drug level in human THP1 cells at 10 mg/L after 2 hrs in presence 10 uM efflux pump inhibitor verapamil relative to control. It counts as ADME, cell-based. As to conditions: thp-1, 2 h.

Structures are written as SMILES.

A word on the half-life: it is the time needed for the level to fall by half in the phase considered. A high value points to slow loss. Turning to `CC(=O)NC[C@H]1CN(c2ccc(-c3ccc(CNCc4cnn[nH]4)cc3)c(F)c2)C(=O)O1` [RADEZOLID], the Drug uptake with THP-1 [1] was 25%; with THP-1 [2], 25%; with THP-1 [3], “Active”; in the data set with THP-1 [4] it was “Active”; with THP-1 [5], 20%; in the data set on J774 [6], “Active”. Further, the Drug uptake result is given as “Active” in the data set with THP-1 [7]; “Active” in the data set with THP-1 [10]; 10% in the data set on THP-1 [11]; “Active” in the data set with THP-1 [12]; 30% with J774 [13]; “Active” in the data set with J774 [15]. Moreover, the results for the Drug uptake result with THP-1 [17] and in the data set with THP-1 [19] were “Active” and 25%, respectively. In addition, the half-life at 4 mg/L in data set [8], in [14] and in data set [16] was 6 min throughout. The Ratio (with THP-1 [9]; in data set [18]) was 8.5 in each case.

For `CC[C@H]1OC(=O)[C@H](C)[C@@H](O[C@H]2C[C@@](C)(OC)[C@@H](O)[C@H](C)O2)[C@H](C)[C@@H](O[C@@H]2O[C@H](C)C[C@H](N(C)C)[C@H]2O)[C@](C)(O)C[C@@H](C)CN(C)[C@H](C)[C@@H](O)[C@]1(C)O` [AZITHROMYCIN], the Ratio with THP-1 [20] and in the data set on THP-1 [22] was 1.7 each time. Further, the Drug uptake with THP-1 [21] was determined as 10%.

Turning to `CC(=O)NC[C@H]1CN(c2ccc(N3CCOCC3)c(F)c2)C(=O)O1` [LINEZOLID], the Drug uptake in the data set on THP-1 [1] came to 25%; in the data set with THP-1 [2], 25%; with THP-1 [5], 20%; in the data set on THP-1 [11], 10%; in the data set on THP-1 [19], 25%.
